The subject of one assay is CD133+ PC3MM2 cells. The experiment in a line: MTT cytotoxicity assay, CD133+ PC3MM2 cells on type I collagen. Type of assay: cell-based, human. The note with it: 72 hours, 10 nM-10 μM, stated as up to. How it is done:
(§1) The CSC-specific cytotoxic effects were studied in two different settings both of which are known to maintain/promote sternness phenotype: adherent to type I collagen cultures and 3D cultures of floating spheroids (Baretton, G. B. 1994; Miyoshi, Y. 2000; Koivisto, P. 1995). The CD133^high/CD44^high cells (1×10^3 cells/well) isolated either from PPT2 or PC3MM2 cell lines were seeded onto the type I collagen-coated 96-well plates, cultured in the MSCGM for 2 days, and the treatment was initiated upon 90% confluency. Paclitaxel, SBT-1214 and CMC2.24 were dissolved in sterile DMSO and then serially diluted in MSCGM. […] Cell death was analyzed on adherent type I collagen cell cultures with the MTT assay [MTT=3-(4,5-dimethylthiazol-2-yl)-2,5-diphenyltetrazolium bromide] as recommended by manufacturer (Invitrogen). […]
The dose-response cytotoxicity of SBT-1214, CMC2.24/and their combination was evaluated by standard MTT assay (all of the in vitro experiments were repeated at least three times and each measurement for the MMT assay was performed in 4 repeats). The dose-response points were plotted as a percentage of the untreated control, the absorbance of which was considered as 100%. Data were expressed as means±SD for each drug concentration. […] Data were expressed as means±SD for control and drug treated tumors. The statistical significance of differences was determined using Student's t-test. […]
On the technique in general: Tetrazolium dyes change colour on reduction, which living cells bring about.

Assay [1] relates to PPT2 and PC3MM2 cell lines. The experiment in a line: FACS analysis of CD133 expression after drug treatment. It is filed as cell-based, human. The note with it: 10 nM to 10 μM, 24 hours, concentration-dependent.
Source text: To ensure more reliable isolation of CSCs, cells were labeled with one or several markers conjugated with different fluorescent dyes, including anti-human CD133/2-APC (clone 293C3; Miltenyi Biotec, CA, USA); CD166-PE (clone 105902; R&D Systems, MN, USA); CD44-FITC (clone F10-44-2), CD44-PE (clone F10-44-2; Invitrogen/Biosources, USA); CD44v6-FITC (clone 2F10; R&D Systems, USA), EpCAM-FITC (Biosource, CA, USA), Pan-Keratin (C11)-Alexa Fluor® 488 (Cell Signaling) and all the isotype controls (Chemicon). Antibodies were diluted in buffer containing 5% BSA, 1 mM EDTA and 15-20% blocking reagent (Miltenyi Biotec) to inhibit unspecific binding to non-target cells. After 15 min incubation at 4° C., stained cells were sorted and analyzed with multiparametric flow cytometer BD FACSAria (Becton Dickinson, CA). Alternatively, dissociated cells were centrifuged at 950 g for 5 min at 4° C., rinsed with sterile MACS buffer (Miltenyi Biotec, CA) and labeled with CD133 Abs directly or indirectly conjugated with ferromagnetic beads (Miltenyi Biotec, CA) as recommended by manufacturer.
as §1

The test system of a further assay is p53 and p21. The assay can be described thus: Western blot of pro-apoptotic proteins. Type of assay: cell-based, human. The note with it: CD133+ and bulk PPT2 cells, previously not expressed. The method, then: Cells were lysed using Active Motif Nuclear Co-ip kit according to manufacturer's protocol. 20 μg of enriched nuclear and cytoplasmic extracts was subjected to electrophoresis in 10% polyacrylamide gel. The proteins were then transferred to a nitrocellulose membrane and developed with appropriate antibodies.
A general note: In western blotting, separated proteins are transferred to a membrane and probed.

Assay [2] concerns PPT2- and PC3MM2-induced tumors. The experiment in a line: Tumor xenografts induced by CD133+ cells, tumor size. It is filed as in vivo, NOD/SCID mice. The method, then: All experiments involving the use of animals were carried out in strict accordance with the recommendations in the Guide for the Care and Use of Laboratory Animals of the National Institutes of Health, via a research protocol that was approved by Stony Brook University Institutional Animal Care and Use Committee (IACUC). NOD/SCID mice (Charles River Laboratories International, Inc., MA) were maintained under defined conditions at SBU animal facility. After sufficient propagation, CD133^+ cells were resuspended in 1:1 MSCGM/Matrigel and injected to the flanks of 6 weeks old NOD/SCID mice (3,000 cells per mice; subcutaneously). Tumor development was monitored starting from the second week. The primary tumor sizes were measured with a caliper on a weekly basis and approximate tumor weights determined using the formula 0.5ab^2, where b is the smaller of the two perpendicular diameters. All mice were terminated after fourth week of treatment, if the tumor measured ˜2 cm, or at the first sign of suffering.
Animals were handled according to protocols that have been approved by the Institutional Animal Care and Use committee of the Stony Brook University. […] Systemic toxicity in NOD/SCID mice was closely monitored and evaluated by standard criteria (motor activity, morbidity, appetite, posture and appearance). […] Cells were counted and plated on 48-well plates at a final count of 300 cells per well. […]

Another assay concerns PC3MM2-induced tumors. The assay can be described thus: Residual tumors after treatment, viable cells and ex vivo colonies, PC3MM2. The note with it: 40, 20, 20, 20 mg/kg weekly, one week after last treatment. Type of assay: in vivo, NOD/SCID mice. How it is done:
Animals were handled according to protocols that have been approved by the Institutional Animal Care and Use committee of the Stony Brook University. The staff of veterinarians provided veterinary care. The SBT-1214 was administered intravenously (40, 20, 20, 20 mg/kg; weekly) to 6-weeks old NOD/SCID mice. Treatment was started 2-3 weeks after transplantation of the tumor cells, when tumor xenografts reached ˜100 mm^3. Systemic toxicity in NOD/SCID mice was closely monitored and evaluated by standard criteria (motor activity, morbidity, appetite, posture and appearance). One week after the last treatment, all residual tumors were harvested and analyzed histopathologically and for ex vivo clonogenic capacity. One part of each mouse tumor xenograft was snap-frozen in embedding matrix (Lipshaw) and kept at −80° C. before immunohistochemical analysis at standard conditions. […] Ability to induce the round colonies (holoclones) was also determined before and after drug treatment. Cells were counted and plated on 48-well plates at a final count of 300 cells per well. One week after initiation, the plates were inspected for colony growth and the number of colonies within each well was quantified by phase contrast microscopy. After drug treatment, one portion of cells which survived particular treatment regimen was placed at 3D and adherent culture conditions and analyzed. […]

Assay [3] has as its system drug-resistant colon tumor xenografts. The settings on record: all surviving mice; cited from earlier work.

SMILES strings stand for the structures. “Also recorded” adds a separate entry of the source.

Regarding `CC(=O)O[C@@]12CO[C@@H]1C[C@H](O)[C@@]1(C)C(=O)[C@H](OC(=O)C3CC3)C3=C(C)[C@@H](OC(=O)[C@H](O)[C@H](C=C(C)C)NC(=O)OC(C)(C)C)C[C@@](O)([C@@H](OC(=O)c4ccccc4)[C@H]21)C3(C)C` [SBT-1214], in the assay with CD133+ PC3MM2 cells, the cell death result is “up to 60%”. In addition, the “ratios of cells with highest expression of CD133” value in assay [1] is reported as “increased the ratios”. Also, the “expression of p21 and p53” value in the assay on p53 and p21 was “induced expression”. Besides, the tumor size result in assay [2] (40, 20, 20, 20 mg/kg weekly i.v.) is reported as “more significant tumor regression; also recorded: dramatic reduction in tumor size”; in assay [2] (40, 40, 40 mg/kg weekly i.v., by the third treatment) it was “dramatically shrunk”. The “residual tumors without viable cells and without colonies in culture” value in the assay with PC3MM2-induced tumors is given as “three of six”. Further, the tumor regression entry in assay [3] was “complete regression”.

The record behind these values is patent US9675576B2, “Polyenolic zinc-binding agents (pezbins) actively promote inactivation of cancer stem cells and potentiate cytotoxic anti-tumor drug substances” (The Research Foundation for The State University of New York, priority 2012, dated 2017).
